ChEMBL document CHEMBL1125915, “Novel alkaloids from the tropical plant Ancistrocladus abbreviatus inhibit cell killing by HIV-1 and HIV-2” (J Med Chem, 1991)

Columns and labels:
[1] = test system: CEM-SS; assay: Compound tested for inhibition of the cytopathic effects of HIV-1 upon CEM-SShuman lymphoblastoid target cells in vitro; format: functional, cell-based; conditions: Homo sapiens
[2] = test system: CEM-SS; assay: Compound tested for cytotoxic effect on uninfected CEM-SS human lymphoblastoid target cell; format: functional, cell-based
[3] = test system: CEM-SS; assay: Compound tested for inhibition of P24 (P24 antigen) in HIV-infected CEM-SS cells; Inhibited; format: functional, cell-based; conditions: Homo sapiens
[4] = test system: CEM-SS; assay: Compound tested for inhibition of syncytium-forming units (SFU) in HIV-infected CEM-SS cells; Inhibited; format: functional, cell-based; conditions: Homo sapiens
[5] = target: Human immunodeficiency virus type 1 reverse transcriptase (Human immunodeficiency virus 1) (UniProt Q72547); assay: Compound tested for inhibition of RT (reverse transcriptase) in HIV-infected CEM-SS cells; Inhibited; format: cell-based

Compound | EC50 [1] [µM] | IC50 [2] [µM] | inhibition [3] | inhibition [4] | inhibition [5]
COc1cc(C)cc2c(-c3c(O)cc(O)c4c3C[C@H](C)N[C@H]4C)cc(-c3cc(-c4c(O)cc(O)c5c4C[C@H](C)N[C@H]5C)c4cc(C)cc(OC)c4c3O)c(O)c12 (stereo in doubt; 1) [listing 1 of 2 here] | 20 | 200 | – | – | –
COc1cc(C)cc2c(-c3c(O)cc(O)c4c3C[C@H](C)N[C@H]4C)cc(-c3cc(-c4c(O)cc(O)c5c4C[C@H](C)N[C@H]5C)c4cc(C)cc(OC)c4c3O)c(O)c12 (stereo in doubt; 1) [listing 2 of 2 here] | – | – | Inhibited | Inhibited | Inhibited
COc1cc(C)cc2c(-c3c(O)cc(O)c4c3C[C@H](C)N[C@H]4C)cc(-c3cc(-c4c(O)cc(O)c5c4C[C@H](C)N[C@H]5C)c4cc(C)cc(OC)c4c3O)c(O)c12 (stereo in doubt; 2) | – | – | Inhibited | Inhibited | Inhibited
